In patent publication US6362369B1, “Phthalic acid diamide derivatives fluorine-containing aniline compounds as starting material, agricultural and horticultural insecticides, and a method for application of the insecticides” (Nihon Nohyaku Co., Ltd., priority 1997, dated 2002):

What was measured:
[1] = tested on: diamondback moth (Plutella xylostella); assay: Insecticidal effect on diamondback moth (Test Example 1); type: in vivo; details: for Insecticidal effect on diamondback moth (Test Example 1), judged grade: mortality judged according to the criterion shown in Test Example 1; for Insecticidal effect, Test Example 1 / Insecticidal effect (Test Example 1), judged from mortality: diamondback moth; for Insecticidal effect (Test Example 1), judged from mortality: judged by the criterion of Test Example 1
Procedure, shortened: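 Oviposition by adults on Chinese cabbage seedling; immersion; air-dry; 25° C room. Count of hatched larvae at day 6 post-immersion → mortality → effect graded by criterion. Triplicate, 10 insects/group.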

[2] = tested on: rice leafroller (Cnaphalocrocis medinalis); assay: Insecticidal effect on rice leafroller (Test Example 3); type: in vivo; details: 500 ppm, 25° C., humidity 70%; for Insecticidal effect on rice leafroller (Test Example 3), judged grade / Insecticidal effect (Test Example 3), judged from mortality: rice lamina dip; for Insecticidal effect on rice leafroller (Test Example 3), judged grade: third-instar larvae; for Insecticidal effect on rice leafroller (Test Example 3), judged grade / Insecticidal effect, Test Example 3: four days after inoculation; for Insecticidal effect, Test Example 3: rice lamina immersed; for Insecticidal effect (Test Example 3), judged from mortality: 4 days after inoculation
Procedure, shortened: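 Insecticidal effect is judged by a predefined criterion from dead/alive counts four days after infesting air-dried lamina with third-instar larvae, kept on moistened filter paper at 25° C, 70% humidity.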

[3] = mortality judged by criterion of Test Example 1
[4] = rice leafroller third-instar larvae
[5] = judged by the mortality criterion of Test Example 1
[6] = third-instar larvae of rice leafroller

CCC(C)NC(=O)c1c(C(=O)Nc2ccc(OC(F)F)cc2C)cccc1[N+](=O)[O-] (stereo not shown) [compound 839]
Insecticidal effect on diamondback moth (Test Example 1), judged grade [1]: A (100) | Insecticidal effect on rice leafroller (Test Example 3), judged grade [2]: C (89-80)

CCCNC(=O)c1cccc(I)c1C(=O)Nc1ccc(C(F)(F)C(F)(F)F)cc1C [compound 1304]
Insecticidal effect, Test Example 1 [1, 3]: A (100) | Insecticidal effect, Test Example 3 [2, 4]: A (100)

Cc1cc(N(C)C)ccc1NC(=O)c1cccc([N+](=O)[O-])c1C(=O)NC(C)C [compound 723]
Insecticidal effect on diamondback moth (Test Example 1), judged grade [1]: D (79-50) | Insecticidal effect on rice leafroller (Test Example 3), judged grade [2]: D (79-50)

CCC(CO)NC(=O)c1cccc(Cl)c1C(=O)Nc1ccc(C(F)(F)C(F)(F)F)cc1C (stereo not shown) [compound 1441]
Insecticidal effect, Test Example 1 [1, 3]: A (100) | Insecticidal effect, Test Example 3 [2, 4]: A (100)

CC(C)NC(=O)c1cccc(I)c1C(=O)Nc1ccc(I)cc1 [compound 413]
Insecticidal effect, Test Example 1 [1, 5]: A (100) | Insecticidal effect, Test Example 3 [2, 6]: C (89-80)

Cc1cc(C(F)(F)C(F)(F)C(F)(F)F)ccc1NC(=O)c1c(F)cccc1C(=O)NC(C)C [compound 555]
Insecticidal effect on diamondback moth (Test Example 1), judged grade [1]: A (100) | Insecticidal effect on rice leafroller (Test Example 3), judged grade [2]: B (99-90)

Cc1cccc(NC(=O)c2cccc(Br)c2C(=O)NC(C)C)c1C [compound 263]
Insecticidal effect, Test Example 1 [1, 5]: A (100) | Insecticidal effect, Test Example 3 [2, 6]: A (100)

Cc1cc(I)ccc1NC(=O)c1c(Cl)cccc1C(=O)NC(C)C [compound 217]
Insecticidal effect, Test Example 1 [1, 5]: A (100) | Insecticidal effect, Test Example 3 [2, 6]: A (100)

COc1ccc(NC(=O)c2c(Br)cccc2C(=O)NC(C)C)c(C)c1 [compound 322]
Insecticidal effect, Test Example 1 [1, 5]: A (100) | Insecticidal effect, Test Example 3 [2, 6]: B (99-90)

Cc1cc(OC(F)(F)C(F)(F)c2ccccc2)ccc1NC(=O)c1cccc(I)c1C(=O)NC(C)C [compound 1088]
Insecticidal effect, Test Example 1 [1, 3]: A (100) | Insecticidal effect, Test Example 3 [2, 4]: A (100)

Cc1cc(C(F)(F)C(F)(F)F)ccc1NC(=O)c1cccc(Cl)c1C(=O)NCc1ccc(Cl)c(Cl)c1 [compound 1351]
Insecticidal effect, Test Example 1 [1, 3]: A (100) | Insecticidal effect, Test Example 3 [2, 4]: A (100)

COCOc1ccc(NC(=O)c2ccccc2C(=O)NC(C)C)c(C)c1 [compound 69]
Insecticidal effect, Test Example 1 [1, 5]: A (100) | Insecticidal effect, Test Example 3 [2, 6]: A (100)

CSCOc1ccc(NC(=O)c2ccccc2C(=O)NC(C)C)c(C)c1 [compound 70]
Insecticidal effect, Test Example 1 [1, 5]: A (100) | Insecticidal effect, Test Example 3 [2, 6]: A (100)

Cc1cc(OC(F)(F)F)ccc1NC(=O)c1c(Br)cccc1C(=O)NC(C)C [compound 326]
Insecticidal effect, Test Example 1 [1, 5]: A (100) | Insecticidal effect, Test Example 3 [2, 6]: A (100)

Cc1cc(C(F)(F)C(F)(F)F)ccc1NC(=O)c1cccc(Cl)c1C(=O)NC(C)c1ccccc1 (stereo not shown) [compound 1321]
Insecticidal effect, Test Example 1 [1, 3]: A (100) | Insecticidal effect, Test Example 3 [2, 4]: A (100)

CCCN(CCC)C(=O)c1c(I)cccc1C(=O)Nc1ccc(OC(F)F)cc1C [compound 1157]
Insecticidal effect, Test Example 1 [1, 3]: A (100) | Insecticidal effect, Test Example 3 [2, 4]: A (100)

Cc1cc(OC(F)(F)C(Cl)(Cl)Cl)ccc1NC(=O)c1c(F)cccc1C(=O)NC(C)C [compound 552]
Insecticidal effect on diamondback moth (Test Example 1), judged grade [1]: A (100) | Insecticidal effect on rice leafroller (Test Example 3), judged grade [2]: B (99-90)

Cc1cccc(CNC(=O)c2cccc(Cl)c2C(=O)Nc2ccc(C(F)(F)C(F)(F)F)cc2C)c1 [compound 1340]
Insecticidal effect, Test Example 1 [1, 3]: A (100) | Insecticidal effect, Test Example 3 [2, 4]: A (100)

CC(C)NC(=O)c1c(C(=O)Nc2cc(C(F)(F)F)ccc2Cl)cccc1[N+](=O)[O-] [compound 661]
Insecticidal effect on diamondback moth (Test Example 1), judged grade [1]: B (99-90) | Insecticidal effect on rice leafroller (Test Example 3), judged grade [2]: D (79-50)

CC(C)NC(=O)c1cccc([N+](=O)[O-])c1C(=O)Nc1ccc(C(F)(F)F)cc1Cl [compound 740]
Insecticidal effect on diamondback moth (Test Example 1), judged grade [1]: A (100) | Insecticidal effect on rice leafroller (Test Example 3), judged grade [2]: A (100)

CC(C)NC(=O)c1ccccc1C(=O)Nc1ccc(F)cc1 [compound 23]
Insecticidal effect, Test Example 1 [1, 5]: A (100) | Insecticidal effect, Test Example 3 [2, 6]: D (79-50)

Cc1cc(Br)ccc1NC(=O)c1cccc([N+](=O)[O-])c1C(=O)NC(C)C [compound 671]
Insecticidal effect on diamondback moth (Test Example 1), judged grade [1]: A (100) | Insecticidal effect on rice leafroller (Test Example 3), judged grade [2]: D (79-50)

CC(C)NC(=O)c1cccc(F)c1C(=O)Nc1ccc2c(c1)OCO2 [compound 580]
Insecticidal effect on diamondback moth (Test Example 1), judged grade [1]: A (100) | Insecticidal effect on rice leafroller (Test Example 3), judged grade [2]: A (100)

Cc1cc(OC(F)F)ccc1NC(=O)c1cc(F)ccc1C(=O)NC(C)C [compound 534]
Insecticidal effect on diamondback moth (Test Example 1), judged grade [1]: A (100) | Insecticidal effect on rice leafroller (Test Example 3), judged grade [2]: A (100)

CSc1ccc(NC(=O)c2c(Br)cccc2C(=O)NC(C)C)c(C)c1 [compound 333]
Insecticidal effect, Test Example 1 [1, 5]: A (100) | Insecticidal effect, Test Example 3 [2, 6]: D (79-50)

CC(C)NC(=O)c1c(F)cccc1C(=O)Nc1ccc(C(F)(F)C(F)(F)F)cc1F [compound 1514]
Insecticidal effect (Test Example 1), judged from mortality [1]: A (100) | Insecticidal effect (Test Example 3), judged from mortality [2, 6]: A (100)

CC(C)(C)NC(=O)c1c(I)cccc1C(=O)Nc1c(Cl)cc(Cl)c2c1OC(F)(F)O2 [compound 1748]
Insecticidal effect (Test Example 1), judged from mortality [1]: A (100) | Insecticidal effect (Test Example 3), judged from mortality [2, 6]: A (100)

Cc1cc(C(F)(F)C(F)(F)F)ccc1NC(=O)c1cccc(Cl)c1C(=O)N(C)Cc1cccc(Cl)c1 [compound 1578]
Insecticidal effect (Test Example 1), judged from mortality [1]: A (100) | Insecticidal effect (Test Example 3), judged from mortality [2, 6]: A (100)

CC(C)NC(=O)c1ccccc1C(=O)Nc1ccc([S+]([O-])C(F)(F)F)cc1 (stereo not shown) [compound 999]
Insecticidal effect, Test Example 1 [1, 3]: A (100) | Insecticidal effect, Test Example 3 [2, 4]: A (100)

CC(C)NC(=O)c1cccc(F)c1C(=O)Nc1cccc(Cl)c1Cl [compound 543]
Insecticidal effect on diamondback moth (Test Example 1), judged grade [1]: A (100) | Insecticidal effect on rice leafroller (Test Example 3), judged grade [2]: A (100)

Cc1cc(C(F)(F)C(F)(F)F)ccc1NC(=O)c1ccccc1C(=O)NC(C)(C)CO [compound 1381]
Insecticidal effect, Test Example 1 [1, 3]: A (100) | Insecticidal effect, Test Example 3 [2, 4]: C (89-80)

CC(C)NC(=O)c1c(Cl)cccc1C(=O)Nc1cc2c(cc1Cl)OC(F)(F)C(F)(F)O2 [compound 1643]
Insecticidal effect (Test Example 1), judged from mortality [1]: A (100) | Insecticidal effect (Test Example 3), judged from mortality [2, 6]: A (100)

Cc1cc(Oc2ccc(C(F)(F)F)cc2Cl)ccc1NC(=O)c1ccccc1C(=O)NC(C)C [compound 75]
Insecticidal effect, Test Example 1 [1, 5]: A (100) | Insecticidal effect, Test Example 3 [2, 6]: A (100)

Cc1ccc(Cl)cc1NC(=O)c1ccc(F)cc1C(=O)NC(C)C [compound 530]
Insecticidal effect on diamondback moth (Test Example 1), judged grade [1]: A (100) | Insecticidal effect on rice leafroller (Test Example 3), judged grade [2]: D (79-50)

COc1ccccc1CNC(=O)c1c(Cl)cccc1C(=O)Nc1ccc(C(F)(F)C(F)(F)F)cc1C [compound 1343]
Insecticidal effect, Test Example 1 [1, 3]: A (100) | Insecticidal effect, Test Example 3 [2, 4]: A (100)

Cc1cc(C(F)(F)C(F)(F)F)ccc1NC(=O)c1c(Cl)cccc1C(=O)N[C@H](C)CO [compound 1461]
Insecticidal effect (Test Example 1), judged from mortality [1]: A (100) | Insecticidal effect (Test Example 3), judged from mortality [2, 6]: A (100)

Cc1cc(C(F)(F)C(F)(F)F)ccc1NC(=O)c1cccc(Cl)c1C(=O)NCc1ccc(Cl)cc1 [compound 1333]
Insecticidal effect, Test Example 1 [1, 3]: A (100) | Insecticidal effect, Test Example 3 [2, 4]: A (100)

CC(C)NC(=O)c1c(C(=O)Nc2ccc(F)c(Cl)c2)cccc1[N+](=O)[O-] [compound 643]
Insecticidal effect on diamondback moth (Test Example 1), judged grade [1]: A (100) | Insecticidal effect on rice leafroller (Test Example 3), judged grade [2]: A (100)

CC(C)NC(=O)c1c(C(=O)Nc2ccccc2Cl)cccc1[N+](=O)[O-] [compound 586]
Insecticidal effect on diamondback moth (Test Example 1), judged grade [1]: A (100) | Insecticidal effect on rice leafroller (Test Example 3), judged grade [2]: D (79-50)

Cc1cc(OC(F)(F)C(F)OC(F)(F)F)ccc1NC(=O)c1cccc(F)c1C(=O)NC(C)C (stereo not shown) [compound 515]
Insecticidal effect on diamondback moth (Test Example 1), judged grade [1]: A (100) | Insecticidal effect on rice leafroller (Test Example 3), judged grade [2]: C (89-80)

CC(C)NC(=O)c1cccc(Cl)c1C(=O)Nc1ccc2c(c1)nc(C(F)(F)F)n2C [compound 257]
Insecticidal effect, Test Example 1 [1, 5]: A (100) | Insecticidal effect, Test Example 3 [2, 6]: B (99-90)

Cc1cc(OC(F)(F)F)ccc1NC(=O)c1cccc(I)c1C(=O)NCCc1cccnc1 [compound 1772]
Insecticidal effect (Test Example 1), judged from mortality [1]: A (100) | Insecticidal effect (Test Example 3), judged from mortality [2, 6]: A (100)

CCCN(CC)C(=O)c1c(I)cccc1C(=O)Nc1ccc(OC(F)F)cc1C [compound 1575]
Insecticidal effect (Test Example 1), judged from mortality [1]: A (100) | Insecticidal effect (Test Example 3), judged from mortality [2, 6]: A (100)

Cc1cc(C#CC(C)(C)C)ccc1NC(=O)c1cccc(Cl)c1C(=O)NC(C)C [compound 1301]
Insecticidal effect, Test Example 1 [1, 3]: A (100) | Insecticidal effect, Test Example 3 [2, 4]: A (100)

CC(C)NC(=O)c1cccc(Cl)c1C(=O)Nc1cccc([S+]([O-])C(F)(F)F)c1 (stereo not shown) [compound 206]
Insecticidal effect, Test Example 1 [1, 5]: A (100) | Insecticidal effect, Test Example 3 [2, 6]: A (100)

COc1cccc(C(=O)NC(C)C)c1C(=O)Nc1ccc(Br)cc1C [compound 771]
Insecticidal effect on diamondback moth (Test Example 1), judged grade [1]: A (100) | Insecticidal effect on rice leafroller (Test Example 3), judged grade [2]: C (89-80)

CC(C)NC(=O)c1cccc(Cl)c1C(=O)Nc1ccc(C(C)(C)C)cc1 [compound 196]
Insecticidal effect, Test Example 1 [1, 5]: A (100) | Insecticidal effect, Test Example 3 [2, 6]: D (79-50)
